Data: ChEMBL document CHEMBL5223138, “Lead identification of novel tetrahydroimidazo[1,2-a]pyridine-5-carboxylic acid derivative as a potent heparanase-1 inhibitor” (Bioorg Med Chem Lett, 2023)

Experiments:
Heparanase = target: T1, Heparanase (Homo sapiens, UniProt Q9Y251); test: Inhibition of Heparanase-1 (unknown origin) by HTRF method
T1 sequence (Q9Y251 whole entry): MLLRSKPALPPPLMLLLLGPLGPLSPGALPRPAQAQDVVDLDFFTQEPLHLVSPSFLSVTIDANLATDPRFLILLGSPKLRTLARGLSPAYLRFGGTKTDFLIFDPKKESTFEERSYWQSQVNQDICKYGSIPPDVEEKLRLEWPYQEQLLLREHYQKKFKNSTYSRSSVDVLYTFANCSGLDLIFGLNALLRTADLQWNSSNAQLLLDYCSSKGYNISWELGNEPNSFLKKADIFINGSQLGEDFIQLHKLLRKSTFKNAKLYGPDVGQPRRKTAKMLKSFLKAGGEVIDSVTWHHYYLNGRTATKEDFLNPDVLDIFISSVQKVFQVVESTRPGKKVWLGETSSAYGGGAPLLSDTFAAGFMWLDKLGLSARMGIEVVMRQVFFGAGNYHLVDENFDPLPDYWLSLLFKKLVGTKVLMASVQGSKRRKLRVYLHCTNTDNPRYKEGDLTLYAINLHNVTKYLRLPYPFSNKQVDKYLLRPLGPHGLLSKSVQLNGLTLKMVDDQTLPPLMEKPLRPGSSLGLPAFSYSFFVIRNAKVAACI

[1] = Binding affinity to bovine liver beta-glucuronidase; design: species or system Bos taurus

IC50 (Heparanase) [µM]	Ki [1] [µM]	Structure (SMILES)
9.19	–	CCCCCCCCCCCCCCCc1cc(O[C@@H]2O[C@H](C(=O)O)[C@@H](O)[C@H](O)[C@H]2O)cc(O)c1C(=O)Oc1cc(C)c(C(=O)O)c(O)c1
–	0.012	O=C(O)[C@@H]1[C@@H](O)[C@H](O)[C@@H](O)c2nccn21
3.41	–	O=C(O)[C@@H]1[C@@H](O)[C@H](O)[C@@H](O)c2nc(CCc3ccc(C(F)(F)F)cc3)cn21
